One may read the IC50 as the point on the concentration scale where inhibition reaches its midpoint.

One assay concerns mice. As to the kind of experiment: formalin paw test. It is filed as in vivo, mouse. As to the method:
AAK1 homozygous (−/−) and their wild-type (+/+) littermates were tested using the formalin paw test in order to assess their acute and tonic nociceptive responses. For these tests, Automatic Nociception Analyzers (purchased from the Ozaki lab at University of California, San Diego) were used. A metal band was placed around the left hind paw of each mouse 30 minutes prior to testing. After the 30-minute acclimation period, 20 μl of 5% formalin is subcutaneously injected in the dorsal surface of the left hind paw. Mice were individually housed in cylindrical chambers for 45 minutes. Fresh 5% formalin solution was prepared by diluting formaldehyde (Formalde-fresh 20%, Fisher Scientific, Fair Lawn, N.J.) with distilled water. Investigatory compounds were administered 30 minutes prior to formalin injection.
A computer recorded flinches per minute, total flinches for phase I (acute phase=first 8 minutes), and total flinches for phase II (tonic phase=time between minutes 20-40) through an electromagnetic field. See Yaksh T L, Ozaki G, McCumber D, Rathbun M, Svensson C, Malkmus S, Yaksh M C. An automated flinch detecting system for use in the formalin nociceptive bioassay. J Appl Physiol., 2001; 90:2386-402.
The same test was used to confirm that the administration of an AAK1 inhibitor can also affect pain response.
A compound of the disclosure was tested in this assay at different doses. Gabapentin and pregabalin were used as positive controls. Results are shown below in Table 2, wherein the effect of gabapentin at 200 mg/kg is considered a 100% response, the % response for the other compounds is relative to the 200 mg/kg dose of gabapentin, “sc” means subcutaneous administration.

The target of assay [1] is AAK1 (full length human) in HEK293F cells (Homo sapiens, UniProt Q2M2I8). As to the kind of experiment: HEK293F Cell-Based Assay (phospho-mu2 Western blot). The conditions noted are these: 3 hours. As for the experimental part:
HEK293F cells were cultured in media containing DMEM (Gibco, cat. #11965), 10% FBS (SAFC Biosciences, cat. #12103C), 1×GPS (glutamine, penicillin and streptomycin). On day one, cells were plated on a 10 cm dish so that they are ˜80% confluent at time of transfection. Roughly 12 million cells were in a 10 cm dish at time of transfection. On day two, each dish was transfected with 48 ug DNA and 144 ul Lipofectamine 2000 (Invitrogen, cat. #11668-019). The DNA was comprised of a mixture (per 10 cm dish) containing 3 ug AAK1/HA/pIRES (full length human, NCBI accession no. NP_055726.2), 45 μg Flag/AP2MI/pcDNA (full length human), and 1.5 ml OPTI-MEM. The Lipofectamine 2000 is made up of a mixture (per 10 cm dish) containing 144 μl Lipofectamine 2000 and 1.5 ml OPTI-MEM. Each mixture was transferred to individual 15 ml tubes and incubated at RT for 5 minutes, and then the two mixes were combined and incubated at RT for 20 minutes. Growth media was then aspirated from each 10 cm plate and replaced with 10 ml of DMEM+10% FBS (no GPS). Finally, 3 ml DNA/Lipofectamine mix was added to each 10 cm dish and mix gently followed by incubate of plate overnight at 37° C. and 5% CO2.
On day three, compounds were diluted in 100% DMSO at 1000× final concentration, followed by 3-fold serial dilutions for a total of 5 concentrations tested. Four compounds were tested per 10 cm dish. One ul of each compound dilution was then pipetted into a deep-well, 96-well plate, followed by addition of 500 μl DMEM+0.5% FBS into each well for a 2× final concentration of each compound. Cells were resuspended in a 10 cm dish by simple pipetting (HEK293 cells come off the plate that easy at this point) and then transferred to a 50 ml conical tube and pelleted by centrifugation at 1000 rpm for 5 min. Cell pellets were then resuspended in 2.75 ml DMEM+0.5% FBS per 10 cm dish and 100 μl of cell suspension transferred into each well of 96-well TC plate. Finally, 100 μl of 2× compound diluted in DMEM+0.5% FBS was then added into wells containing cell suspension for a 1× final concentration. Plates were then incubated at 37° C. and 5% CO2 for 3 hours followed by transferring of cell suspensions from each well into 12-tube PCR strips. The PCR strips were spun in a tip rack at 1000 rpm for 5 minutes to pellet cells and media was then removed by pipetting without disturbing the cell pellet.
To prepare for Western Blot analysis, cell pellets were resuspend in 40 ul 1× LDS-PAGE sample buffer (Invitrogen, cat. # NP0008)+2× Halt phophatase and protease inhibitor cocktail (Thermo Scientific, cat. #1861284), followed by sonicating each with microtip sonicator set at 5 for 8-10 seconds. Five ul of 10× NuPage Sample Reducing Agent (with 50 mM DTT) was to each sample followed by heat denaturing at 70 C for 10 min on PCR machine. A total of 10 μl per sample was loaded into each lane of a 4-20% Tris-Glycine Criterion 26-well gel (Biorad, cat. #345-0034) for the phospho-mu2 blot and 10 μl per lane in a 4-12% Bis-Tris (+MES buffer) NuPAGE 26-well gel (Invitrogen, cat. # WG1403BX10) for the mu2 blot. For controls, 2 ng of phospho-mu2 or 20 ng mu2/Flag proteins were loaded in the last well of each gel. After SDS-PAGE, samples on each gel were transferred to PVDF membrane using an iBlot and membranes were blocked for one hour in TBST+5% milk, followed by wash 3× for 5-10 min with TBST. Criterion gels were probed with rabbit anti-phospho-mu2 (1:5000; a rabbit polyclonal antibody produced by New England Peptide and affinity purified at Lexicon) in TBST+5% BSA, whereas, NuPAGE gels were probed with mouse anti-Flag (1:500; Sigma, cat. # F1804) in TBST+5% milk, and these primary antibodies were incubated overnight at 4° C. on a rocker. […]
In general terms: Immunoblotting shows a protein as a band on a membrane.

The target of another assay is T1, GST-Xa-hAAK1 (Homo sapiens, UniProt Q2M2I8).
T1 construct: made in house
Description: AAK1 Kinase Assay. It is filed as biochemical. The note with it: ATP 22 μM. As to the method:
The assays were performed in U-bottom 384-well plates. The final assay volume was 30 μl prepared from 15 μl additions of enzyme and substrates (fluoresceinated peptide (5-FAM)-Aha-[…]-NH2 and ATP) and test compounds in assay buffer (10 mM Tris-HCL pH 7.4, 10 mM MgCl2, 0.01% Tween-20 and 1.0 mM DTT). The reactions were initiated by the combination of bacterially expressed, GST-Xa-hAAK1 with substrates and test compounds. The reactions were incubated at room temperature for 3 hours and terminated by adding 60 μl of 35 mM EDTA buffer to each sample. The reactions were analyzed on the Caliper LabChip 3000 (Caliper, Hopkinton, Mass.) by electrophoretic separation of the fluorescent substrate and phosphorylated product. […] The final concentration of reagents in the assays are ATP, 22 μM; (5-FAM)-Aha-[…]-NH2, 1.5 μM; GST-Xa-hAAK1, 3.5 nM; and DMSO, 1.6%. Dose response curves were generated to determine the concentration required inhibiting 50% of kinase activity (IC50). Compounds were dissolved at 10 mM in dimethylsulfoxide (DMSO) and evaluated at eleven concentrations. IC50 values were derived by non-linear regression analysis.

For a further assay, the system named is PC12 cells. The note with it: Kuai et al. 2011; cited from earlier work.
Setting [2] is: 50 mg/kg sc, relative to gabapentin 200 mg/kg = 100% response.

AAK1 (full length human) in HEK293F cells, sequence (Q2M2I8 1-822 limits assumed): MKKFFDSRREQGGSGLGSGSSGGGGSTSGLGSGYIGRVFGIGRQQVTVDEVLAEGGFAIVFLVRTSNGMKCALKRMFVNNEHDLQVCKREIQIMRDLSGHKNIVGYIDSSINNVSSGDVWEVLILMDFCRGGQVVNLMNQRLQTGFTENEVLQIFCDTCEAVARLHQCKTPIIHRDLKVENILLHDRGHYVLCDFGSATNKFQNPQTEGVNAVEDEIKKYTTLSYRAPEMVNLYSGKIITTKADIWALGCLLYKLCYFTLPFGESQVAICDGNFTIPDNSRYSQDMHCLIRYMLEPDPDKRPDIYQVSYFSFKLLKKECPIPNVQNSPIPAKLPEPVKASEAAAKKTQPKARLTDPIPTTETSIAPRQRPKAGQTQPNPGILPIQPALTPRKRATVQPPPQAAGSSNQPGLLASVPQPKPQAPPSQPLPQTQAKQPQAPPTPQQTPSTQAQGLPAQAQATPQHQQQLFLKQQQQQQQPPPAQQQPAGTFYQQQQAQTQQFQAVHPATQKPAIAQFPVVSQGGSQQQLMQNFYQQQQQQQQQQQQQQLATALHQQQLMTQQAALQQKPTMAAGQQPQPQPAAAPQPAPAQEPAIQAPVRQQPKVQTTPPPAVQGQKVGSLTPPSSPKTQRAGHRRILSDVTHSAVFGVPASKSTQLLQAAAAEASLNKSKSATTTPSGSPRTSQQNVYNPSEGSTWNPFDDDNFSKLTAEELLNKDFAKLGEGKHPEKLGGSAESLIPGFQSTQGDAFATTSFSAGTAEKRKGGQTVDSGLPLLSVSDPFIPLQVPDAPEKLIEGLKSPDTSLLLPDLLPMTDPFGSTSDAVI
T1 sequence (Q2M2I8 whole entry): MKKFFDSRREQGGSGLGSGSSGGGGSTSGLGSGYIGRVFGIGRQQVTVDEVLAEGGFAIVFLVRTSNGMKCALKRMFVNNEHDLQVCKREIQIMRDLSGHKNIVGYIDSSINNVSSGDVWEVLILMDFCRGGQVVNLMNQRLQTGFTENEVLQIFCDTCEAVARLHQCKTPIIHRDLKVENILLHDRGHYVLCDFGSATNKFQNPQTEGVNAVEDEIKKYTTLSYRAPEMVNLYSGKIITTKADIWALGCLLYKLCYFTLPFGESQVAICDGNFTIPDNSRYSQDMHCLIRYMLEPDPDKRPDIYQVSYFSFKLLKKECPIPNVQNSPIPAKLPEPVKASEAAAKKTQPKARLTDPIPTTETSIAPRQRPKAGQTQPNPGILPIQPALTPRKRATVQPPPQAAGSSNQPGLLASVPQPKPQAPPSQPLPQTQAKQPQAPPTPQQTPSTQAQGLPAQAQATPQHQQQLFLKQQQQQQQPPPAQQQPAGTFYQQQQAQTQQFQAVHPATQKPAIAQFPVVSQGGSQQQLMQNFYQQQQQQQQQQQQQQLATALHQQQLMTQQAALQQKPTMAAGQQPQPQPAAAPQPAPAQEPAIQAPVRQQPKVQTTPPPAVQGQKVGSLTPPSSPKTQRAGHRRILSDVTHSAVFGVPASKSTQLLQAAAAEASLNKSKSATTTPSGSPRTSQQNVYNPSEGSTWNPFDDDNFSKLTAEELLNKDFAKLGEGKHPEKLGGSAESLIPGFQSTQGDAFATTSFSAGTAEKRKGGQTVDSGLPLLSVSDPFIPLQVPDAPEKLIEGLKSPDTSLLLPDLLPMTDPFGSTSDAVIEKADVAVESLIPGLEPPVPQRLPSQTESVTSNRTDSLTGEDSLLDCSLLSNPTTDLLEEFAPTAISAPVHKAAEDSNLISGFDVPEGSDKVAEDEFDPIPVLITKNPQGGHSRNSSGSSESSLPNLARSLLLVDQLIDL

Consider `CC(C)C[C@@H](N)COc1ccc2c(c1)OCc1cnccc1-2` [Compound 5, (R)-1-(5H-chromeno[3,4-c]pyridin-8-yloxy)-4-methylpentan-2-amine], for which the Response in the assay with mice (10 mg/kg sc, relative to gabapentin 200 mg/kg = 100% response) was found to be 45%; in the assay with mice (30 mg/kg sc, relative to gabapentin 200 mg/kg = 100% response), 88%.
For the molecule `CC(=O)Nc1cc2c(cn1)COc1cc(OC[C@](C)(N)CC(C)C)ccc1-2` [Example 46, (R)—N-(8-((2-amino-2,4-dimethylpentyl)oxy)-5H-chromeno[3,4-c]pyridin-2-yl)acetamide], the IC50 (in assay [1] (IC50 ranges); on GST-Xa-hAAK1 (IC50 ranges)) was 1 to 10 nM each time.
Turning to `CC1Oc2cc(OCC(N)CCC(F)(F)F)ccc2-c2ccncc21` (stereo not shown) [Example 57, 5,5,5-trifluoro-1-((5-methyl-5H-chromeno[3,4-c]pyridin-8-yl)oxy)pentan-2-amine], the 50% inhibitory concentration (IC50) in assay [1] (IC50 ranges) fell in the range of 10 to 100 nM; on GST-Xa-hAAK1 (IC50 ranges), 1 to 10 nM.
Taken in the same sequence, the figures for `CC(=O)Nc1cc2c(cn1)COc1c-2ccc(OC[C@@H](N)CC(C)C)c1OC(F)F` [Example 59, (S)—N-(8-((2-amino-4-methylpentyl)oxy)-7-(difluoromethoxy)-5H-chromeno[3,4-c]pyridin-2-yl)acetamide] were less than 1 nM and 1 to 10 nM.
For `CC(=O)Nc1cc2c(cn1)COc1c-2ccc(OC[C@@H](N)CC(C)C)c1Cl` [Example 63, (S)—N-(8-((2-amino-4-methylpentyl)oxy)-7-chloro-5H-chromeno[3,4-c]pyridin-2-yl)acetamide], the half-maximal inhibitory concentration (IC50) (in assay [1] (IC50 ranges); at GST-Xa-hAAK1 (IC50 ranges)) was less than 1 nM each time.
As for `CC(C)C[C@H](N)COc1ccc2c(c1)OCc1cnc(NC(=O)OC(C)C)cc1-2` [Example 64, (S)-isopropyl (8-((2-amino-4-methylpentyl)oxy)-5H-chromeno[3,4-c]pyridin-2-yl)carbamate], the concentration for half-maximal inhibition (IC50) turned out to be 15 nM in assay [1] (numeric values) and 5.2 nM on GST-Xa-hAAK1 (numeric values).
Regarding `COC(=O)Nc1cc2c(cn1)COc1cc(OCC(C)(N)CC(C)C)ccc1-2` (stereo not shown) [Example 67, methyl (8-((2-amino-2,4-dimethylpentyl)oxy)-5H-chromeno[3,4-c]pyridin-2-yl)carbamate], the IC50 was 10 to 100 nM in assay [1] (IC50 ranges) and 1 to 10 nM on GST-Xa-hAAK1 (IC50 ranges).
For `CCC(=O)Nc1cc2c(cn1)COc1cc(OC[C@@H](N)CC(C)C)ccc1-2` [Example 73, (S)—N-(8-((2-amino-4-methylpentyl)oxy)-5H-chromeno[3,4-c]pyridin-2-yl)propionamide], the values for the IC50 (in assay [1] (IC50 ranges); on GST-Xa-hAAK1 (IC50 ranges)) were 10 to 100 nM and 1 to 10 nM, respectively.
Taken in the same sequence, the figures for `COC(=O)Nc1cc2c(cn1)COc1c-2ccc(OC[C@@H](N)CC(C)C)c1Cl` [Example 74, (S)-methyl (8-((2-amino-4-methylpentyl)oxy)-7-chloro-5H-chromeno[3,4-c]pyridin-2-yl)carbamate] were less than 1 nM and 1 to 10 nM.
Taken in the same sequence, the figures for `CCOC(=O)Nc1cc2c(cn1)COc1cc(OC[C@@H](N)CC(C)C)ccc1-2` [Example 77, (S)-ethyl (8-((2-amino-4-methylpentyl)oxy)-5H-chromeno[3,4-c]pyridin-2-yl)carbamate] were 1 to 10 nM and 1 to 10 nM.
As for `CCOC(=O)Nc1cc2c(cn1)COc1cc(OC[C@@](C)(N)CC(C)C)ccc1-2` [Example 81, (S)-ethyl (8-((2-amino-2,4-dimethylpentyl)oxy)-5H-chromeno[3,4-c]pyridin-2-yl)carbamate], the IC50 (in assay [1] (IC50 ranges); at GST-Xa-hAAK1 (IC50 ranges)) was less than 1 nM in each case.
Regarding `COC(=O)Nc1ncc2c(c1Cl)-c1cc(Cl)c(OC[C@@](C)(N)CC(C)C)cc1OC2` [Example 82, (S)-methyl (8-((2-amino-2,4-dimethylpentyl)oxy)-1,9-dichloro-5H-chromeno[3,4-c]pyridin-2-yl)carbamate], the IC50 (in assay [1] (IC50 ranges); at GST-Xa-hAAK1 (IC50 ranges)) was 1 to 10 nM each time.
`COC(=O)[C@@]1(O)C[C@H]2O[C@]1(C)n1c3ccccc3c3c4c(c5c6ccccc6n2c5c31)C(=O)NC4` [Example K252a, K252a]: the “effect on Neuregulin-1 induced neurite outgrowth” value in the assay with PC12 cells is “potentiation of Neuregulin-1 induced neurite outgrowth”.
Regarding `NCC1(CC(=O)O)CCCCC1` [Gabapentin], the Response with mice (setting [2]) came to 60%; in the assay with mice (200 mg/kg sc, considered a 100% response) it was 100%.
In turn, `CC(C)C[C@H](CN)CC(=O)O` [Pregabalin] yielded a Response with mice (setting [2]) of 90%.

The values above are taken from US20160222021A1, “ARYL ETHER-BASE KINASE INHIBITORS” (BRISTOL-MYERS SQUIBB COMPANY, priority 2013, published 2016).
